Measurements reported in publication PMC8901119 (Chemical Science, 2021).
Like-named read-outs stand apart in the source and are kept apart here. Blank lines part the entries; values can stand above or below the molecule they belong to. Starred links: 1 amine or outer side, 2 acyl side, 3 side chain; linkers in the order of their positions; H or OH if unused. Non-standard residues stand in square brackets, D forms with d. Residues, ends and D or L forms follow the SMILES beside them. Ala(7-MeO-coumarin-4-yl) = COc1ccc2c(C[C@H](N)C(=O)O)cc(=O)oc2c1; X1 = C[C@H](NC(=S)[C@H](CCCNC(=N)N)N[*:1])C(=O)[*:2]; X2 = C[C@H](NC(=S)[C@H](CCCCN)N[*:1])C(=O)[*:2]

Experiments:
Cts L = Cts L (Homo sapiens, UniProt P07711); test: Cathepsin L inhibition assay with Z-FR-AMC
Chain of Cts L (P07711 114-333): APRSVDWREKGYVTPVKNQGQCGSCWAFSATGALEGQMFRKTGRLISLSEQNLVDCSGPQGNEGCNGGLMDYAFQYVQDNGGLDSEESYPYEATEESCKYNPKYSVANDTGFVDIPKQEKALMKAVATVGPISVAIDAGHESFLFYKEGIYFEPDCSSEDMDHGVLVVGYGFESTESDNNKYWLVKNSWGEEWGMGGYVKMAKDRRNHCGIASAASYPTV

[1] = Stability of peptides in HepG2 whole cell lysate; type: in vitro ADME; details: human
Method: Stability of Peptides in HepG2 Whole Cell Lysate
Using the same conditions as the previous Cts L Activity Assay in HepG2 Whole Cell Lysate, 50 μL peptide (either R1A or RS1A; final concentration 20 μM) was incubated in 50 μL HepG2 whole cell lysate (to a final concentration of 0.05 mg/mL) in the assay buffer for different time points.
The all-amide peptide, R 1A, was incubated for t = 0, 5, 10, 15, 20, and 30 minutes. The thioamide peptide, RS1A, was incubated for t = 0, 2, 6, 8, 10, and 24 hours. After incubation for the desired amount of time, 100 μL methanol was added to the mixture and incubated at -20 °C for 10 minutes before spinning down at 13,000 rpm for 10 minutes. Then, 180 μL of each mixture was further diluted with 220 μL Milli-Q water to a total volume of 400 μL before adding 1 μL 0.42 mM coumarin internal standard for HPLC analysis. The coumarin internal standard was used to normalize the amount of intact peptide in each sample. A Phenomenex Luna® Omega 5 µm PS C18 100 Å analytical column was used to analyze all samples using the same gradient of 20-40 % B over 20 minutes (Solvent A: 0.1% TFA in Milli-Q water; Solvent B: 0.1% TFA in acetonitrile).
Representative HPLC spectra (325 nm) at different time points were also shown to confirm the stability of the peptides in HepG2 whole cell lysate (Figure S26 A & B). MALDI MS was used to confirm the mass from each fraction from the HPLC from experiment with the all-amide peptide (R 1A – expected [M+H]+ = 1133.51 m/z) and the thioamide peptide ( RS1A – expected [M+H]+ = 1149.48 m/z). To calculate the percent intact peptide for each sample, the average ratio of intact peptide to internal standard was compared to that ratio at t = 0. For each time point, the experiment

cathepsin L (Cts L) [2] = details: human, 27 °C, up to 2-hour
cathepsin B (Cts B) = details: human, 27 °C, up to 100 min
cathepsin S (Cts S) = details: 27 °C, up to 100 min
cathepsin K (Cts K) = details: 27 °C, up to 100 min
cathepsin L (Cts L) [3] = details: human, 27 °C, up to 100 min
cathepsin V (Cts V) = details: 27 °C, up to 100 min
[4] = Cts L, mixed inhibition model fit, Z-FR-AMC, pH 5.5, 27 °C

Molecule: COc1ccc2c(C[C@H](NC(=O)[C@H](C)NC(=O)[C@H](C)NC(=O)[C@H](C)NC(=O)[C@H](CCCCN)NC(=O)[C@H](Cc3ccccc3)NC(=O)[C@H](CC(C)C)NC(=O)[C@H](Cc3c[nH]cn3)NC(=O)[C@@H](N)Cc3cc(=O)oc4cc(OC)ccc34)C(=O)O)cc(=O)oc2c1 [K3A, μHLFKAAAμ] (H-[Ala(7-MeO-coumarin-4-yl)]HLFKAAA[Ala(7-MeO-coumarin-4-yl)]-OH)
- Ki (Cts L; [4]): 3050 ± 640 nM

Molecule: HLFR^SA
- not cleaved (cathepsin L (Cts L) [2]): remained intact after the 2-hour assay

Molecule: μHLFKAAAμ (H-[Ala(7-MeO-coumarin-4-yl)]HLFKAAA[Ala(7-MeO-coumarin-4-yl)]-OH; SMILES COc1ccc2c(C[C@H](NC(=O)[C@H](C)NC(=O)[C@H](C)NC(=O)[C@H](C)NC(=O)[C@H](CCCCN)NC(=O)[C@H](Cc3ccccc3)NC(=O)[C@H](CC(C)C)NC(=O)[C@H](Cc3c[nH]cn3)NC(=O)[C@@H](N)Cc3cc(=O)oc4cc(OC)ccc34)C(=O)O)cc(=O)oc2c1)
- cleaved bond (cathepsin B (Cts B)): K-A
- cleaved bond (cathepsin S (Cts S)): K-A

Molecule: μHLFK^SAAAμ (H-[Ala(7-MeO-coumarin-4-yl)]HLF[X2]AA[Ala(7-MeO-coumarin-4-yl)]-OH; SMILES COc1ccc2c(C[C@H](NC(=O)[C@H](C)NC(=O)[C@H](C)NC(=O)[C@H](C)NC(=S)[C@H](CCCCN)NC(=O)[C@H](Cc3ccccc3)NC(=O)[C@H](CC(C)C)NC(=O)[C@H](Cc3c[nH]cn3)NC(=O)[C@@H](N)Cc3cc(=O)oc4cc(OC)ccc34)C(=O)O)cc(=O)oc2c1)
- not cleaved (cathepsin K (Cts K)): No cleavage
- cleaved bond (cathepsin B (Cts B)): A-A
- not cleaved (cathepsin S (Cts S)): No cleavage
- cleaved bond (cathepsin L (Cts L) [3]): A-A
- not cleaved (cathepsin V (Cts V)): No cleavage

Molecule: μHLFRAAAμ (H-[Ala(7-MeO-coumarin-4-yl)]HLFRAAA[Ala(7-MeO-coumarin-4-yl)]-OH; SMILES COc1ccc2c(C[C@H](NC(=O)[C@H](C)NC(=O)[C@H](C)NC(=O)[C@H](C)NC(=O)[C@H](CCCNC(=N)N)NC(=O)[C@H](Cc3ccccc3)NC(=O)[C@H](CC(C)C)NC(=O)[C@H](Cc3c[nH]cn3)NC(=O)[C@@H](N)Cc3cc(=O)oc4cc(OC)ccc34)C(=O)O)cc(=O)oc2c1)
- cleaved bond (cathepsin B (Cts B)): R-A
- cleaved bond (cathepsin S (Cts S)): R-A

Molecule: μHLFR^SAAAμ (H-[Ala(7-MeO-coumarin-4-yl)]HLF[X1]AA[Ala(7-MeO-coumarin-4-yl)]-OH; SMILES COc1ccc2c(C[C@H](NC(=O)[C@H](C)NC(=O)[C@H](C)NC(=O)[C@H](C)NC(=S)[C@H](CCCNC(=N)N)NC(=O)[C@H](Cc3ccccc3)NC(=O)[C@H](CC(C)C)NC(=O)[C@H](Cc3c[nH]cn3)NC(=O)[C@@H](N)Cc3cc(=O)oc4cc(OC)ccc34)C(=O)O)cc(=O)oc2c1)
- not cleaved (cathepsin K (Cts K)): No cleavage
- cleaved bond (cathepsin B (Cts B)): A-A
- not cleaved (cathepsin S (Cts S)): No cleavage
- cleaved bond (cathepsin L (Cts L) [3]): A-A
- not cleaved (cathepsin V (Cts V)): No cleavage

Other lines, results leading:

- Ki (Cts L; [4]): 600 ± 150 nM
Molecule: COc1ccc2c(C[C@H](NC(=O)[C@H](C)NC(=O)[C@H](C)NC(=O)[C@H](C)NC(=S)[C@H](CCCCN)NC(=O)[C@H](Cc3ccccc3)NC(=O)[C@H](CC(C)C)NC(=O)[C@H](Cc3c[nH]cn3)NC(=O)[C@@H](N)Cc3cc(=O)oc4cc(OC)ccc34)C(=O)O)cc(=O)oc2c1 [K^S3A, μHLFK^SAAAμ] (H-[Ala(7-MeO-coumarin-4-yl)]HLF[X2]AA[Ala(7-MeO-coumarin-4-yl)]-OH)

- Ki (Cts L; Cts L (preliminary data), phosphate buffer pH 6.0, 27 °C, preliminary): 870 nM
Molecule: COc1ccc2c(C[C@H](NC(=O)[C@H](C)NC(=O)[C@H](C)NC(=O)[C@H](C)NC(=S)[C@H](CCCCN)NC(=O)[C@H](CC(C)C)NC(=O)[C@H](CC(C)C)NC(=O)[C@@H](N)Cc3cc(=O)oc4cc(OC)ccc34)C(=O)O)cc(=O)oc2c1 [K^SP1, μLLK^SAAAμ] (H-[Ala(7-MeO-coumarin-4-yl)]LL[X2]AA[Ala(7-MeO-coumarin-4-yl)]-OH; N-terminus and C-terminus assumed)

- half-life at 20 μM ([1]; 20 μM peptide, 0.05 mg/mL lysate, HPLC): 7.2 min
- remaining at 5 min, 20 μM ([1]; HepG2 lysate, 5 mins, read-out: % intact peptide): 46%
- remaining at 10 min, 20 μM ([1]; HepG2 lysate, 10 mins, read-out: % intact peptide): 36%
- remaining at 0.25 h, 20 μM ([1]; HepG2 lysate, 15 mins, read-out: % intact peptide): 32.8%
- remaining at 20 min, 20 μM ([1]; HepG2 lysate, 20 mins, read-out: % intact peptide): 21.7%
- remaining at 0.5 h, 20 μM ([1]; HepG2 lysate, 30 mins, read-out: % intact peptide): 6.92%
Molecule: COc1ccc2c(C[C@H](NC(=O)[C@H](C)NC(=O)[C@H](CCCNC(=N)N)NC(=O)[C@H](Cc3ccccc3)NC(=O)[C@H](CC(C)C)NC(=O)[C@H](Cc3c[nH]cn3)NC(=O)[C@@H](N)Cc3cc(=O)oc4cc(OC)ccc34)C(=O)O)cc(=O)oc2c1 [R1A, μHLFRAμ] (H-[Ala(7-MeO-coumarin-4-yl)]HLFRA[Ala(7-MeO-coumarin-4-yl)]-OH)

- Ki (Cts L; [4]): 1680 ± 490 nM
Molecule: COc1ccc2c(C[C@H](NC(=O)[C@H](C)NC(=O)[C@H](C)NC(=O)[C@H](C)NC(=O)[C@H](CCCNC(=N)N)NC(=O)[C@H](Cc3ccccc3)NC(=O)[C@H](CC(C)C)NC(=O)[C@H](Cc3c[nH]cn3)NC(=O)[C@@H](N)Cc3cc(=O)oc4cc(OC)ccc34)C(=O)O)cc(=O)oc2c1 [R3A, μHLFRAAAμ] (H-[Ala(7-MeO-coumarin-4-yl)]HLFRAAA[Ala(7-MeO-coumarin-4-yl)]-OH)

- remaining at 2 h, 20 μM ([1]; HepG2 lysate, 2 hours, read-out: % intact peptide): 86.3%
- remaining at 6 h, 20 μM ([1]; HepG2 lysate, 6 hours, read-out: % intact peptide): 75.7%
- remaining at 8 h, 20 μM ([1]; HepG2 lysate, 8 hours, read-out: % intact peptide): 80.7%
- remaining at 10 h, 20 μM ([1]; HepG2 lysate, 10 hours, read-out: % intact peptide): 79.9%
- remaining at 24 h, 20 μM ([1]; HepG2 lysate, 24 hours, read-out: % intact peptide): 61.3%
Molecule: COc1ccc2c(C[C@H](NC(=O)[C@H](C)NC(=S)[C@H](CCCNC(=N)N)NC(=O)[C@H](Cc3ccccc3)NC(=O)[C@H](CC(C)C)NC(=O)[C@H](Cc3c[nH]cn3)NC(=O)[C@@H](N)Cc3cc(=O)oc4cc(OC)ccc34)C(=O)O)cc(=O)oc2c1 [R^S1A, μHLFR^SAμ] (H-[Ala(7-MeO-coumarin-4-yl)]HLF[X1][Ala(7-MeO-coumarin-4-yl)]-OH)

- Ki (Cts L; [4]): 520 ± 120 nM
Molecule: COc1ccc2c(C[C@H](NC(=O)[C@H](C)NC(=O)[C@H](C)NC(=O)[C@H](C)NC(=S)[C@H](CCCNC(=N)N)NC(=O)[C@H](Cc3ccccc3)NC(=O)[C@H](CC(C)C)NC(=O)[C@H](Cc3c[nH]cn3)NC(=O)[C@@H](N)Cc3cc(=O)oc4cc(OC)ccc34)C(=O)O)cc(=O)oc2c1 [R^S3A, μHLFR^SAAAμ] (H-[Ala(7-MeO-coumarin-4-yl)]HLF[X1]AA[Ala(7-MeO-coumarin-4-yl)]-OH)

- not cleaved (cathepsin K (Cts K)): No cleavage
- not cleaved (cathepsin B (Cts B)): No cleavage
- not cleaved (cathepsin S (Cts S)): No cleavage
- not cleaved (cathepsin L (Cts L) [3]): No cleavage
- not cleaved (cathepsin V (Cts V)): No cleavage
Molecule: μHLFR^SAμ
